Measurements published in patent US20220249522A1, “Hypoxia Targeting Compositions and Combinations Thereof with a PARP Inhibitor and Methods of Use Thereof” (The Board of Trustees of the Leland Stanford Junior …, priority 2018, published 2022).

Tests used:
[1] = test system: PARP enzyme activity in OVCAR8 cells; assay: Western blot analysis of PAR formation; assay type: cell-based; conditions: olaparib 1 μM or talazoparib 10 nM, 7 days
Description: (§1) FIGS. 5A and 5B show western blot analyzes of the levels of poly(ADP-ribose) (PAR) in OVCAR8 cells (FIG. 5A) and HT1080 cells (FIG. 5B) following treatment with a vehicle, olaparib (AZD-2281; 1 μM), or talazoparib (BMN 673; 10 nM) cultured in 21% oxygen or 2% oxygen conditions.
(§2) Western blot analysis of PAR formation was conducted in OVCAR8 cells and HT1080 cells following treatment with a vehicle, olaparib (AZD-2281; 1 μM), or talazoparib (BMN 673; 10 nM) cultured in 21% oxygen or 2% oxygen conditions for 7 days. PAR levels in cell lysates were quantified using western blot.

[2] = test system: PARP enzyme activity in HT1080 cells; assay: Western blot analysis of PAR formation; assay type: cell-based; conditions: olaparib 1 μM or talazoparib 10 nM, 7 days
Description: as §1, §2

OVCAR8 cell line = assay: Colony formation survival after 7 days PARP inhibitor in 21%, 5% or 2% oxygen; assay type: cell-based; conditions: for survival in the presence of PARP inhibitor: olaparib 1 μM or talazoparib 10 nM; for survival fraction versus correspondingly treated samples at 21% oxygen: 2% oxygen; for survival fraction versus correspondingly treated samples at 21% oxygen / survival fraction: olaparib 0-1 μM or talazoparib 0-10 nM; for survival fraction: 21% oxygen
Excerpt: (§3) FIGS. 1A-1D show plots of survival fraction versus olaparib (AZD-2281) concentration for SUM149 (FIG. 1A), CAPAN-1 (FIG. 1B), HT1080 (FIG. 1C), and OVCAR8 (FIG. 1D) cell lines cultured in 21% oxygen or 2% oxygen conditions.
(§4) FIGS. 2A-2D show plots of survival fraction versus talazoparib (BMN 673) concentration for SUM149 (FIG. 2A), CAPAN-1 (FIG. 2B), HT1080 (FIG. 2C), and OVCAR8 (FIG. 2D) cell lines cultured in 21% oxygen or 2% oxygen conditions.
(§5) Specifically, a series of cell lines deficient for HR were treated with PARP inhibitors (olaparib or talazoparib (BMN 673)) for 7 days in 21% oxygen (representative of normoxic conditions) or 2% oxygen (representative of hypoxic conditions). In duplicates, 250-2000 cells of each cell line were seeded in 6-well plates and treated with varying concentrations of olaparib (0-1 μM) or talazoparib (0-10 nM). At the end of the treatment, media from each well was changed to drug-free media and cells were incubated to allow for formation of colonies. At the end of each incubation, colonies were fixed in 70% ethanol and stained with Crystal Violet to facilitate counting of colonies. At least 3 biological replicates were performed for each condition tested. The HR deficient cell lines treated were SUM149 (a BRAC1 mutant, triple negative breast cancer cell line), CAPAN-1 (a BRAC2 mutant, pancreatic cancer cell line), HT1080 (an IDH mutant, fibrosarcoma cell line), and OVCAR8 (a hypermethylated BRAC1 promoter, ovarian serous adenocarcinoma (high grade) cell line).
These observations were further evaluated using the OVCAR8 cell line samples at 21% oxygen, 5% oxygen, and 2% oxygen concentrations. Specifically, OVCAR8 cell line samples were cultured in 21% oxygen, 5% oxygen, or 2% oxygen conditions and were treated with a vehicle, olaparib (1 μM), or talazoparib (BMN 673; 10 nM) for 7 days. At the end of the treatment, media from each well was changed to a drug-free media and cells were incubated to allow for formation colonies.

[3] = test system: breast patient-derived tumor xenografts (PDTXs); assay: Olaparib efficacy in breast PDTX models in relation to hypoxia score; assay type: in vivo; conditions: archived PDTX data of Bruna et al; hypoxia signature of Buffa et al
Excerpt: FIGS. 7A-7D show a schematic of diagram of olaparib treatment in OVCAR8 xenografts (FIG. 7A), a Western blot analysis of PAR levels in tumor lysates (FIG. 7B), immunohistochemical staining of vehicle- and olaparib-treated tumors (FIG. 7C), and sensitivity to olaparib inversely correlates with hypoxia in Breast PDX models (FIG. 7D).
Efficacy of olaparib in a range of patient-derived tumor xenografts (PDTXs) were previously tested in vivo by Bruna et al and the results archived in a biobank (http://caldaslab.cruk.cam.ac.uk/bcape) (see Bruna et al. Cell 167, 260-274 (2016), the disclosure of which is incorporated herein by reference). The efficacy of olaparib in these breast PDTX models in relation to their hypoxia levels was analyzed. […] (Buffa et al. Br J Cancer 102, 428-35 (2010), the disclosure of which is incorporated herein by reference). This is in accordance with the data from in vitro studies.

SUM149 cell line = assay: Colony formation survival after 7 days PARP inhibitor in 21% or 2% oxygen; assay type: cell-based; conditions: olaparib 0-1 μM or talazoparib 0-10 nM; for survival fraction versus correspondingly treated samples at 21% oxygen: 2% oxygen; for survival fraction: 21% oxygen
Excerpt: as §3, §4, §5

CAPAN-1 cell line = assay: as above; assay type: cell-based; conditions: olaparib 0-1 μM or talazoparib 0-10 nM; for survival fraction versus correspondingly treated samples at 21% oxygen: 2% oxygen; for survival fraction: 21% oxygen
Excerpt: as §3, §4, §5

HT1080 cell line = assay: as above; assay type: cell-based; conditions: olaparib 0-1 μM or talazoparib 0-10 nM; for survival fraction versus correspondingly treated samples at 21% oxygen: 2% oxygen; for survival fraction: 21% oxygen
Excerpt: as §3, §4, §5

[4] = test system: PARP enzyme activity in OVCAR8 xenografts; assay: PAR levels in tumor lysates of xenografts (western blot); assay type: in vivo; conditions: olaparib 50 mg/kg daily intraperitoneal for 2 days
Description: OVCAR8 xenografts were established by subcutaneous injection of tumor cells in serum-free media/matrigel mix. Once tumors reached a size of about 100 mm^3, animals were divided into the following groups: (i) vehicle (10% 2-hydroxy-propyl-β-cyclodextrin/PBS) once a day via intraperitoneal injection (ii) olaparib (50 mg/kg) administered daily via intraperitoneal injection for 2 days. 3 animals were used per group.
Following completion of each treatment regimen, tumors were collected for analysis (FIG. 7A). PARP enzyme activity (measured via formation of PAR) was evaluated using western blot analysis.

OVCAR8 cells [5] = assay: Survival fraction after 96 hours tirapazamine, PARP inhibitor or combination; assay type: cell-based; conditions: tirapazamine alone 0.1 μM or 1 μM, 21% or 2% oxygen
Description: FIGS. 10A-10C show histograms of survival fractions of OVCAR8 cells treated with a vehicle, tirapazamine, olaparib, olaparib plus tirapazamine, talazoparib, or talazoparib plus tirapazamine.
(§6) The in vitro efficacy of single agent tirapazamine or a single agent PARP inhibitor (olaparib or talazoparib) or combinations of tirapazamine and a PARP inhibitor (olaparib or talazoparib) was assessed in HR deficient cell lines (OVCAR8 and SUM149) at 21% oxygen and 2% oxygen concentrations. Specifically, OVCAR8 cells were seeded and treated with one of the following for 96 hours in 21% oxygen or 2% oxygen concentrations: (i) vehicle; (ii) tirapazamine (TPZ; 0.1 μM or 1 μM); (iii) olaparib (OL; 1 μM); (iv) tirapazamine (at concentrations above) plus olaparib (1 μM); (v) talazoparib (BMN; 10 nM); or tirapazamine (at concentrations above) plus talazoparib (10 nM). […] At the end of the treatment, media from each sample was changed to a drug-free media and cells were incubated to allow for formation colonies before survival fraction was determined.

OVCAR8 cells [6] = assay: Tirapazamine x PARPi dose matrix, survival and synergy analysis (Combenefit); assay type: cell-based; conditions: for tirapazamine doses required to achieve a synergy score of 30-40: with 10 nM BMN673; for tirapazamine dose required for a synergy score of 20-30: with 0.1 μM olaparib
Description: FIGS. 8A and 8B show survival percentage of OVCAR8 cells treated with olaparib (0.001-10 μM) and TPZ (0.1-50 μM) or BMN673 (0.01-20 nM) and TPZ (0.1-50 μM) (FIG. 8A), and HSA synergism analysis of OVCAR8 cells treated with varying doses of TPZ and olaparib or TPZ and BMN673 (FIG. 8B).
(§7) The effect of combining a hypoxia activated prodrug with PARPi on cellular toxicity was assessed. […] Combenefit; a validated, open-access software program was used to analyze the data and quantify possible synergistic or antagonistic drug interactions, and relative cell kill data are presented as survival curves (FIG. 8A& 9A), while synergy scores are presented in matrix format (FIG. 8B& 9B). […] Examples are highlighted with the red squares in the matrix plots. In OVCAR8 cells for example, tirapazamine doses required to achieve a synergy score of 30-40 when cells are treated with 10 nM BMN673 are 0.5-1 μM in hypoxia and 5-10 μM in normoxia.

SUM149 cells [7] = assay: as above; assay type: cell-based; conditions: combination with PARPi (olaparib and BMN673)
Description: FIGS. 9A and 9B show survival percentage of SUM149 cells treated with olaparib (0.001-10 μM) and TPZ (0.1-50 μM) or BMN673 (0.01-20 nM) and TPZ (0.1-50 μM) (FIG. 9A), and HSA synergism analysis of SUM149 cells treated with varying doses of TPZ and olaparib or TPZ and BMN673 (FIG. 9B).
as §7

[8] = test system: non-small cell lung cancer and head and neck cancer; conditions: background statement; cited from earlier work
SUM149 cells [9] = assay: Survival fraction after 96 hours tirapazamine, PARP inhibitor or combination; assay type: cell-based; conditions: tirapazamine alone 0.1 μM or 1 μM, 21% or 2% oxygen
Description: FIGS. 11A-11C show histograms of survival fractions of SUM149 cells treated with a vehicle, tirapazamine, olaparib, olaparib plus tirapazamine, talazoparib, or talazoparib plus tirapazamine.
as §6

[10] = 2% oxygen compared to 5% oxygen
[11] = 2% oxygen compared to 21% oxygen
[12] = 5% oxygen compared to 21% oxygen

SMILES	PAR formation ([1]; 2% oxygen)	PAR formation ([1]; 21% oxygen)	PAR formation ([2]; 2% oxygen)	PAR formation ([2]; 21% oxygen)	survival in the presence of PARP inhibitor (OVCAR8 cell line; [10])	survival in the presence of PARP inhibitor (OVCAR8 cell line; [11])	survival fraction versus correspondingly treated samples at 21% oxygen (OVCAR8 cell line)	survival in the presence of PARP inhibitor (OVCAR8 cell line; [12])	survival fraction (OVCAR8 cell line)	survival fraction versus correspondingly treated samples at 21% oxygen (SUM149 cell line)	survival fraction (SUM149 cell line)	survival fraction versus correspondingly treated samples at 21% oxygen (CAPAN-1 cell line)	survival fraction (CAPAN-1 cell line)	survival fraction versus correspondingly treated samples at 21% oxygen (HT1080 cell line)	survival fraction (HT1080 cell line)	also measured
O=C(c1cc(Cc2n[nH]c(=O)c3ccccc23)ccc1F)N1CCN(C(=O)C2CC2)CC1 [olaparib]	reduced PAR formation	reduced PAR formation	reduced PAR formation	reduced PAR formation	significantly improved survival	significantly improved survival	higher survival fractions	significantly improved survival	reduced	higher survival fractions	reduced	higher survival fractions	reduced	higher survival fractions	reduced	correlation between hypoxia score of the tumors and their sensitivity to olaparib therapy [3]: strong inverse correlation; PAR formation in xenograft samples [4]: no evidence of PAR formation
Cn1ncnc1[C@H]1c2n[nH]c(=O)c3cc(F)cc(c23)N[C@@H]1c1ccc(F)cc1 [talazoparib]	reduced PAR formation	reduced PAR formation	reduced PAR formation	reduced PAR formation	significantly improved survival	significantly improved survival	higher survival fractions	significantly improved survival	reduced	higher survival fractions	reduced	higher survival fractions	reduced	higher survival fractions	reduced	–
Nc1n[n+]([O-])c2ccccc2[n+]1[O-] [tirapazamine, 3-amino-1,2,4-benzotriazine-1,4-dioxide]	–	–	–	–	–	–	–	–	–	–	–	–	–	–	–	cell survival fraction as compared to the vehicle (OVCAR8 cells [5]): did not have a significant effect; fold lower doses of tirapazamine required under hypoxic conditions to achieve similar or even higher synergy scores to normoxic conditions (OVCAR8 cells [6]; combination with PARPi (olaparib and BMN673)): 10 fold; tirapazamine doses required to achieve a synergy score of 30-40 (OVCAR8 cells [6]; hypoxia): 0.5 to 1 µM; tirapazamine doses required to achieve a synergy score of 30-40 (OVCAR8 cells [6]; normoxia): 5 to 10 µM; tirapazamine dose required for a synergy score of 20-30 (OVCAR8 cells [6]; hypoxia): 1 µM; tirapazamine dose required for a synergy score of 20-30 (OVCAR8 cells [6]; normoxia): 10 µM; fold lower doses of tirapazamine required under hypoxic conditions to achieve similar or even higher synergy scores to normoxic conditions (SUM149 cells [7]): 10 fold; efficacy in clinical trials [8]: lack of efficacy; cell survival fraction as compared to the vehicle (SUM149 cells [9]): did not have a significant effect
